Experimental data published in publication PMC2626591, “Phage display-derived inhibitor of the essential cell wall biosynthesis enzyme MurF” (BMC Biochemistry, 2008).
Ends that are not written are not given here.

Experiments:
[1] = target: T1, P. aeruginosa MurF (Pseudomonas aeruginosa, UniProt Q9EY48); assay: MurF kinetics with respect to D-Ala-D-Ala, spectrophotometric (Lanzetta reagent) ATPase assay; assay type: biochemical
T1 construct: made in house
Procedure: (§1) The ATPase activity of P. aeruginosa MurF was quantified by a colorimetric assay that measures the release of nanomoles of inorganic phosphate using the Lanzetta reagent. The reaction mixture (100 μl), held at room temperature, contained 40 nM of purified MurF from a fresh aliquot, 1 mM ATP, 100 μM UDP-MurNAc-Ala-Glu-meso-A2pm and 5 mM D-Ala-D-Ala in buffer C (100 mM Tris-HCl pH 8.6, 40 mM KCl, 500 mM NaCl, 1 mg/ml bovine serum albumin and 10 mM MgCl2). Reaction time was 15 min before adding 800 μl of the Lanzetta reagent. After an additional 5 min for colour development, 100 μl of 34% (w/v) sodium citrate was added to stop the reaction. The optical density at 660 nm was immediately measured with a Cary spectrophotometer (Varian, Mississauga, Ontario, Canada). The amount of inorganic phosphate released by MurF was determined by comparison to the linear portion of a phosphate standard curve with a minimum R^2 value of 0.99. The phosphate content of each component in the reaction was subtracted from the total phosphate measured, negative controls were done without enzyme or substrate, and assays were done in triplicate. Different concentrations of each substrate and NaCl were tested to determine optimal conditions for the study of the activity of MurFp1.
The maximal specific activity, the catalytic constant (kcat), the Michaelis-Menten constant (Km) and the enzyme efficiency (kcat/Km) were determined for MurF with respect to D-Ala-D-Ala. Kinetic parameters were determined by nonlinear regression analysis with a square matrix of enzyme velocities following the Michaelis-Menten equations using the Enzyme Kinetics Module version 1 of SigmaPlot version 8.

[2] = target: T1, P. aeruginosa MurF; assay: MurF inhibition by MurFp1, spectrophotometric (Lanzetta reagent) ATPase assay; assay type: biochemical
Procedure: as §1
MurFp1 was synthesized and purified as previously described. Peptide purity (> 95%) was analyzed by HPLC and molecular mass (1424.68 daltons) was confirmed by MALDI-TOF mass spectroscopy. […]
Inhibition of MurF enzymatic activity by MurFp1 was measured by the spectrophotometric assay described above. […] The effect of non-specific peptides was analysed on MurF enzymatic activity, with and without UDP-MurNAc-Ala-Glu-A2pm in the pre-incubation step. […]
Kinetic data were fitted to the appropriate model equations using the Sigmaplot Enzyme Kinetics Module. Steady-state inhibition kinetic parameters were determined by nonlinear regression analysis using the least squares method as a reference to ensure accurate dataset fitting and to generate error estimates for each individual observation. […]

[3] = tested on: MurF; details: 12-mer phage library, elution with glycine-HCl, 1 mM ATP or 1 mM D-Ala-D-Ala; ten phages sequenced per elution condition; in words
Procedure: Phage display screening was performed with the PH.D.-12 phage library (New England Biolabs, Mississauga, Ontario, Canada). […] Phages encoding selected peptides were eluted at the end of the third round using 100 μl of 0.2 M glycine-HCl (pH 2.2) [17], and 100 μl of 1 mM ATP or 1 mM D-Ala-D-Ala for 30 min. The DNA of ten phages was prepared and sequenced with a -96 gIII primer (New England Biolabs) for each elution condition [23].

T1 sequence (Q9EY48 entry or part of it): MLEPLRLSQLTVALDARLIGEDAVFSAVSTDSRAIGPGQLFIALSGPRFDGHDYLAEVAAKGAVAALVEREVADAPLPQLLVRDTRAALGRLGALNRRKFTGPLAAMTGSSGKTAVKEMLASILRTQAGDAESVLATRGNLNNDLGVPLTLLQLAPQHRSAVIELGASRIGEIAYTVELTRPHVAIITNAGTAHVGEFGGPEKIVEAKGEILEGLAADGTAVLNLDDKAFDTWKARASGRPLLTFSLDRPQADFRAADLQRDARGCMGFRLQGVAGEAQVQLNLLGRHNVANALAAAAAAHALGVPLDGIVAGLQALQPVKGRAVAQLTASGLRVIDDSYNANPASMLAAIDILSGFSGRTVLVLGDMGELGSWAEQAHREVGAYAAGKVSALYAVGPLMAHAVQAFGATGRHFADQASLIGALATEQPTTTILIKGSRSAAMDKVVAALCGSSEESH

Question: For D-Alanyl-D-Alanine [D-Ala-D-Ala], which Km ([1]; MurF, with respect to D-Ala-D-Ala, pH 8.6, room temperature) is on record?
Answer: 115 ± 10 µM

Question: What about the “ligations of D-Ala-D-Ala per MurF active site (kcat)” value ([1]; ligation to UDP-MurNAc-Ala-Glu-meso-A2pm, from kcat) of the same substance?
Answer: about 100 per min

Question: What about the kcat/Km ([1]; with respect to D-Ala-D-Ala, pH 8.6, room temperature) of the same substance?
Answer: 14200 ± 2500 M⁻¹ s⁻¹

Question: For TMGFTAPRFPHY [MurFp1], which inhibition at 2000 µM ([2]; 2 mM MurFp1, 30-minute pre-incubation of MurF with MurFp1, no substrate in pre-incubation) is on record?
Answer: 50%

Question: What about the IC50 ([2]; 30 min pre-incubation with MurF, MurFp1 and UDP-MurNAc-Ala-Glu-meso-A2pm, 40 nM MurF, pH 8.6, room temperature, 15 min reaction, OD 660 nm, assays in triplicate) of the same substance?
Answer: 250 ± 10 µM

Question: What about the “effect on Km for D-Ala-D-Ala” value ([2]; each MurFp1 concentration used, 30 min pre-incubation with UDP-MurNAc-Ala-Glu-A2pm, in words) of the same substance?
Answer: remained almost the same

Question: With VSANRHLGGNLP as the substance, how does the “recovery in third round of bio-panning” value [3] read?
Answer: recovered once by both the ATP and D-Ala-D-Ala elutions
